Patent US20250353828A1, “SUBSTITUTED BIARYL ENDOCHIN-LIKE QUINOLONES WITH ENHANCED ANTIPARASITIC ACTIVITY” (Oregon Health & Science University, priority 2022, published 2025)
Like-named read-outs stand apart in the source and are kept apart here. Each block holds one compound with its values, some of them ahead of it.

Columns and labels:
[1] = biological target: T1, human liver cytochrome bc1 complex (Homo sapiens, UniProt P00156); conditions: data taken from Nilsen et al., 2013 (a) or Frueh et al., 2017 (b); cited from earlier work
T1 construct: human host cytochrome bc1 complex isolated from human liver tissue; from tissue; host or cells: human liver tissue

[2] = tested on: P. yoelii (Kenya Strain) blood stage infection in mice; assay: 4-day Peters test against murine malaria; assay type: in vivo; conditions: for 4-day Peters Test Results ED90 / 4-day Peters Test Results NRD (non-recrudescence dose) / 4-day Peters Test Results ED50: P. yoelii in mice, oral gavage in PEG400 on Days 1-4, prodrugs dosed on molar equivalency to parent drug
Procedure: On Day 5 a drop of blood was taken from the tail and a blood smear was prepared, fixed with methanol, and stained with Giemsa. The operator then examined the stained smear microscopically to determine percent parasitemia. Dosages of 0.0025, 0.005, 0.01, 0.03, 0.1, 0.3, 1.0 and 10 mg/kg/day were used for the experiment. […] In this model animals were inoculated exactly as for the 4-day test on Day 0 however drug was administered only on Day 1 while the operator made smears on Day 5 and again weekly thereafter for animals that remained aparasitemic. Animals that remained aparasitemic out to […] were scored as cures.
(§1) In Vivo Efficacy against Murine Malaria. The P. yoelii 4-day test monitors suppression of patent infection in female CF1 mice. The test began with the inoculation (iv) of parasitized erythrocytes (3.5×10^4/P. yoelli) (from a donor animal) on the first day of the experiment (D0). […] Initially the 3-biaryl-ELQs were tested at doses of 0.0025, 0.005, 0.01, 0.03, 0.1, 0.3, 1.0 and 10 mg/kg/day, including a vehicle-only (PEG400) control. After completion of drug treatment, a blood sample was collected (by pricking the tail vein) for determination of parasite burden beginning on the day after the final dose (D5). Percent parasitemia is assessed by direct microscopic analysis of Giemsa-stained blood smears. […] Animals with observable parasitemia following the experiment were euthanized; animals cleared of parasites from the bloodstream were observed daily with assessment of parasitemia performed weekly until day 30, at which point the animal(s) were scored as cured of infection. […] Non-linear regression analysis is used for objective determination of ED50's and ED90's from the accumulated data as well as the Non-Recrudescence Dose (NRD). The 4-day test protocol was reviewed and approved by the local IACUC board at the Portland VA Medical Center. Experiments were performed with 4 mice per group to ensure statistical accuracy.

[3] = biological target: T2, P. falciparum cytochrome bc1 complex (Plasmodium falciparum, UniProt Q02768); conditions: data taken from Nilsen et al., 2013 (a) or Frueh et al., 2017 (b); cited from earlier work
T2 construct: endogenous in cells
T2 sequence (Q02768 1-376): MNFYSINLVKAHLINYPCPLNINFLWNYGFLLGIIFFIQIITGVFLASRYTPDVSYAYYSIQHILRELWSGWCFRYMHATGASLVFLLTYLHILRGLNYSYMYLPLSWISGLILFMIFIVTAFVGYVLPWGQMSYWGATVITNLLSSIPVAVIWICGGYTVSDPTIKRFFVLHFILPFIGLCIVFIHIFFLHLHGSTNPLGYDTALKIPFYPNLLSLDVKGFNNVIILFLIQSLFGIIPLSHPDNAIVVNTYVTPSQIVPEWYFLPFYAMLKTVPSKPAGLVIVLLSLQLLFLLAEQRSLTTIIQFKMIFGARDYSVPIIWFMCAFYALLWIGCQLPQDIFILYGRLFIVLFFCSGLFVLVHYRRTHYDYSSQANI

[4] = tested on: P. yoelii blood stage infection in mice; assay: In vivo single-dose cure against murine malaria; conditions: for Single dose cure: lowest single dose that cures all 4 mice, P. yoelii, prodrugs dosed on molar equivalency to parent drug
Procedure: Animals that remained aparasitemic out to […] were scored as cures.
In Vivo Single-Dose Efficacy against Murine Malaria. The effectiveness of selected 3-biarylELQs and prodrugs was assessed vs. the blood stage infection for single dose cures. Mice are infected iv with 3.5×10^4 P. yoelii infected RBCs as described for the 4-day test above. Drug administration occurred on the day after inoculation (Day 1). Test agents were dissolved in PEG-400 and administered ig once. On the 5th day blood films were prepared and % parasitemia was assessed. Animals remaining parasite-free for 30 days after drug administration were considered cured. The initial dosing range was: 0.5, 1, 2.5, 5, 10 mg/kg, including a control. Experiments were performed with 4 mice per group to ensure statistical accuracy. The reported parameter for these studies is the lowest single dose that provides a cure to all 4 animals in the group.

HepG2 cells = assay: HepG2 cytotoxicity, TiterGlo ATP luminescence, galactose medium; assay type: cell-based, human
Procedure: (§2) […]. Of course, enhanced potency is desirable only if unaccompanied by enhanced toxicity. […] […]. The incubation period for these experiments was 48 hours.

[5] = tested on: P. falciparum D6 strain (drug sensitive); assay: In vitro antiplasmodial activity, SYBR Green I assay, D6 strain; assay type: cell-based, Plasmodium falciparum; conditions: for IC50: Plasmodium falciparum, read-out: P. falciparum IC50 values, nM D6
Procedure: (§3) Rationale for Synthesis of a 3-Biaryl Version of ELQ-300. […] All of this information is stored in a database with information relating to chemical structure, physical chemical properties, cross resistance patterns, mammalian cell cytotoxicity, enzyme inhibitor profiles, and synthesis details. […] We employed the SyBr Green assay and the plates were incubated for 72 hours before harvesting^18, 19. […] Stock solutions were freshly prepared in DMSO.
(§4) Plasmodium falciparum Culture. Laboratory strains of P. falciparum were cultured in human erythrocytes by standard methods. The parasites were grown in culture medium with fresh human erythrocytes maintained at 2% hematocrit at 37° C. in low-oxygen conditions (5% O2, 5% CO2, […] balance N2). […] Cultures were maintained at less than 10% parasitemia by transfer of infected cells to fresh erythrocytes and culture medium every 3 or 4 days.
(§5) In vitro drug susceptibility assays. SYBR green I assay. In vitro antiplasmodial activity was assessed using a published SYBR Green I fluorescence-based method. The drugs were added to 96-well plates using 2-fold serial dilutions in complete medium. […] Asynchronous P. falciparum parasites were diluted with uninfected erythrocytes and added to the wells to give a final culture volume of 100 μl at 2% hematocrit and 0.2% parasitemia. […] The parasites were then lysed by adding 100 μl of SYBR green I lysis buffer containing 0.2 μl/ml SYBR green I dye (10,000×) in 20 mM Tris (pH 7.5), 5 mM EDTA, 0.008% (wt/vol) saponin, and 0.08% (vol/vol) Triton X-100. The plates were incubated at room temperature for an hour in the dark. […] If the IC50 value fell outside of the initial tested range then the range was adjusted up or down and the assay was repeated.

[6] = tested on: P. falciparum D1 clone (ELQ-300 resistant); assay: microbe, parasite or virus in culture; assay type: cell-based; conditions: Plasmodium falciparum, 72 h, read-out: P. falciparum IC50 values, nM D1
[7] = tested on: P. falciparum Tm90-C2B (atovaquone-resistant clinical isolate); assay: In vitro antiplasmodial activity, SYBR Green I assay, Tm90-C2B; assay type: cell-based; conditions: Plasmodium falciparum, read-out: P. falciparum IC50 values, nM Tm90-C2B
Procedure: as §3, §4, §5

[8] = tested on: P. falciparum Dd2 strain (multidrug resistant); assay: microbe, parasite or virus in culture; assay type: cell-based, Plasmodium falciparum; conditions: Plasmodium falciparum, DD2, 72 h, read-out: P. falciparum IC50 values, nM Dd2
Procedure: as §3, §4, §5

[9] = Murine microsomal metabolic stability; conditions: for half-life at 1 μM: pH 7.4, T1/2 (minutes)
Description: Ketanserin served as an internal standard for the metabolic rate of a known drug with known intermediate stability.
Imipramine or Osalmid were used as internal standards, and ketanserin was used as a control drug with intermediate stability.

[10] = biological target: T1, human liver cytochrome bc1 complex; assay: Inhibition of human cytochrome bc1 complex; assay type: biochemical; conditions: complex isolated from human liver tissue
Description: Human Cytochrome bc1 Assays.

[11] = Appearance, behaviour and weight observations in the in vivo efficacy-testing model; conditions: mice, at any dose level of the efficacy tests
Procedure: as §1

[12] = biological target: T2, P. falciparum cytochrome bc1 complex; assay: biochemical; conditions: cytochrome bc1 activity from P. falciparum mitochondria
Description: Isolation of Plasmodium falciparum Mitochondria and Ubiquinol-Cytochrome c Oxidoreductase Assay.

[13] = HepG2 cytotoxicity, TiterGlo ATP luminescence, galactose medium; assay type: cell-based, human; conditions: human
Procedure: as §2

[14] = D6 strain, 72 h incubation, averages of quadruplicate with (95% confidence intervals)
[15] = Tm90-C2B strain, 72 h incubation, averages of quadruplicate with (95% confidence intervals)
[16] = mouse, pooled liver microsomes, murine liver microsomes 0.5 mg/ml, 37° C., NADPH, 45 minutes

Compound: CCOC(=O)OCOc1c(-c2ccc(Oc3ccc(OC(F)(F)F)cc3)cc2)c(C)nc2cc(OC)c(Cl)cc12 [ELQ-331, reference compound]
IC50 [1]: > 10000 nM
4-day Peters Test Results ED90 [2]: 0.05 mg/kg/day
4-day Peters Test Results NRD (non-recrudescence dose) [2]: 1.0 mg/kg/day
IC50 [3]: 5300 nM
Single dose cure ([4]; dose on Day 1): 3 mg/kg/day

Compound: C=C(C)[C@H]1Cc2c(ccc3c2O[C@@H]2COc4cc(OC)c(OC)cc4[C@@H]2C3=O)O1 [rotenone, reference compound]
EC50 (cytotoxicity) (HepG2 cells; HepG2, galactose medium, 48 hours): quite cytotoxic

Compound: O=C1C(O)=C([C@H]2CC[C@H](c3ccc(Cl)cc3)CC2)C(=O)c2ccccc21 [Atovaquone, reference compound]
IC50 [1]: 460 nM
4-day Peters Test Results ED50 [2]: 0.1 mg/kg/day
4-day Peters Test Results NRD (non-recrudescence dose) [2]: 10 mg/kg/day
IC50 [5, 14]: 0.08 nM
IC50 [6]: 0.4 nM
IC50 [7, 15]: > 1000 nM
IC50 [8]: 0.4 nM
Single dose cure ([4]; dose on Day 1): 10 mg/kg/day

Compound: COc1ccc2c(=O)c(-c3ccc(-c4ccc(OC(F)(F)F)cc4)cc3)c(C)[nH]c2c1 [ELQ-685, 7-Methoxy-2-methyl-3-(4′-(trifluoromethoxy)-[1,1′-biphenyl]-4-yl)quinolin-4(1H)-one]
IC50 [5, 14]: 5.8 nM
IC50 [6]: 3.5 nM
half-life at 1 μM [9, 16]: > 66.7 h
IC50 [7, 15]: 5.2 nM
IC50 [8]: 8.5 nM

IC50 [10]: > 10000 nM
IC50 [5, 14]: 1.5 nM
P. falciparum cytochrome bc1, nM [12]: only feeble inhibitory activity
IC50 [7, 15]: 0.8 nM
Compound: CCOC(=O)OCOc1c(-c2ccc(-c3ccc(OC(F)(F)F)cc3)cc2)c(C)nc2cc(OC)c(Cl)cc12 [ELQ-598, ((6-chloro-7-methoxy-2-methyl-3-(4′-(trifluoromethoxy)-[1,1′-biphenyl]-4-yl)quinolin-4-yl)oxy)methyl ethyl carbonate]
ED50, ED90 and NRD lower than for ELQ-300 and ELQ-331 ([2]; 4-day test): roughly 3 fold
4-day Peters Test Results ED50 [2]: 0.006 mg/kg/day
4-day Peters Test Results ED90 [2]: 0.01 mg/kg/day
4-day Peters Test Results NRD (non-recrudescence dose) [2]: 0.1 mg/kg/day
appearance, behavioral or weight changes after dosing [11]: no appearance, behavioral or weight changes
EC50 at 48 h [13]: > 10000 nM
lowest fully protective single dose cure ([4]; P. yoelii in mice, dose on Day 1, lowest dose tested to date, as parent drug equivalent): 0.5 mg/kg
more effective as a single dose cure compared directly to ELQ-331 ([4]; blood stage malaria infections in mice): at least 6 times
Single dose cure ([4]; dose on Day 1): ≤0.5 mg/kg/day
lowest fully protective single dose cure, mg/kg of prodrug ([4]; same result expressed as mass of prodrug): 0.6 mg/kg

Compound: COc1cc2[nH]c(C)c(-c3ccc(-c4ccc(OC(F)(F)F)cc4)cc3)c(=O)c2cc1Cl [ELQ-596, 6-chloro-7-methoxy-2-methyl-3-(4′-(trifluoromethoxy)-[1,1′-biphenyl]-4-yl)quinolin-4(1H)-one]
4-day Peters Test Results ED50 [2]: 0.01 mg/kg/day
4-day Peters Test Results ED90 [2]: 0.021 mg/kg/day
4-day Peters Test Results NRD (non-recrudescence dose) [2]: 0.3 mg/kg/day
IC50 [10]: > 10000 nM
improvement of IC50 values over ELQ-300 ([5]; D6 and Dd2 strains as well as C2B): 8- to 10 fold
IC50 ([5]; D6, 72 h): 0.3 nM
IC50 [12]: 0.1 nM
CLint scaled at 1 μM ([9]; mouse, pooled liver microsomes, pH 7.4): 1.15 mL/min/kg
half-life at 1 μM [9, 16]: > 66.7 h
T1/2 (minutes) ([9]; murine liver microsomes 0.5 mg/ml, 37° C., NADPH, 45 minutes): 4,260 minutes
IC50 ([7]; TM90, 72 h): 0.2 nM
EC50 at 48 h ([13]; HepG2, galactose medium, 48 hours, read-out: EC50 (cytotoxicity)): > 10000 nM
EC50 (HepG2 cells; medium with galactose instead of glucose): > 10000 nM
IC50 [8]: 0.4 nM

Compound: CCOC(=O)OCOc1c(-c2ccc(-c3ccc(OC(F)(F)F)cc3)cc2)c(C)nc2cc(OC)ccc12 [ELQ-695, Ethyl (((7-methoxy-2-methyl-3-(4′-(trifluoromethoxy)-[1,1′-biphenyl]-4-yl)quinolin-4-yl)oxy)methyl) carbonate]
4-day Peters Test Results ED50 [2]: 0.2 mg/kg/day
4-day Peters Test Results ED90 [2]: 0.3 mg/kg/day
4-day Peters Test Results NRD (non-recrudescence dose) [2]: 3.7 mg/kg/day
IC50 [5, 14]: 20.9 nM
IC50 [6]: 8.4 nM
half-life at 1 μM [9, 16]: > 66.7 h
IC50 [7, 15]: 10.1 nM
IC50 [8]: 22.3 nM

Compound: CCN(CC)CCCC(C)Nc1ccnc2cc(Cl)ccc12 (stereo not drawn) [CQ, chloroquine, reference compound]
4-day Peters Test Results NRD (non-recrudescence dose) [2]: >64 mg/kg/day
Single dose cure ([4]; dose on Day 1): >64 mg/kg/day
